Experimental data as given in US20230257396A1, “MACROCYCLES AND THEIR USE” (BLOSSOMHILL THERAPEUTICS, INC., priority 2020, published 2023).

What was measured:
Assay in all cases: KINOMEscan kinase binding assay (Eurofins/DiscoveRx), % Ctrl
kinases [1] = target: T1, kinases (Homo sapiens, UniProt P10721, D816H); details: 1 μM; KIT(D816H)
T1 construct: purchased Eurofins/DiscoveRx; host or cells: E. coli BL21-derived host (T7 phage display) for most kinases; HEK-293 for the rest
Summary of the method: (§1)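 Competition binding: DNA- or phage-tagged kinases (T7 phage in E. coli BL21, or HEK-293-expressed) with immobilized biotinylated ligand beads and test compound, 1 h at room temperature. Bead-bound kinase eluted and quantified by qPCR; % Ctrl = (compound − positive control)/(negative control − positive control) ×100 at a single compound concentration.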

kinases [2] = target: T2, kinases (Homo sapiens, UniProt P00519); details: 1 μM
T2 construct: purchased Eurofins/DiscoveRx; host or cells: E. coli BL21-derived host (T7 phage display) for most kinases; HEK-293 for the rest
Summary of the method: as §1

kinases [3] = target: T3, kinases (Homo sapiens, UniProt P36888, N841I); details: 1 μM; FLT3(N841I)
T3 construct: purchased Eurofins/DiscoveRx; host or cells: E. coli BL21-derived host (T7 phage display) for most kinases; HEK-293 for the rest
T3 sequence (P36888 27-993 N841I): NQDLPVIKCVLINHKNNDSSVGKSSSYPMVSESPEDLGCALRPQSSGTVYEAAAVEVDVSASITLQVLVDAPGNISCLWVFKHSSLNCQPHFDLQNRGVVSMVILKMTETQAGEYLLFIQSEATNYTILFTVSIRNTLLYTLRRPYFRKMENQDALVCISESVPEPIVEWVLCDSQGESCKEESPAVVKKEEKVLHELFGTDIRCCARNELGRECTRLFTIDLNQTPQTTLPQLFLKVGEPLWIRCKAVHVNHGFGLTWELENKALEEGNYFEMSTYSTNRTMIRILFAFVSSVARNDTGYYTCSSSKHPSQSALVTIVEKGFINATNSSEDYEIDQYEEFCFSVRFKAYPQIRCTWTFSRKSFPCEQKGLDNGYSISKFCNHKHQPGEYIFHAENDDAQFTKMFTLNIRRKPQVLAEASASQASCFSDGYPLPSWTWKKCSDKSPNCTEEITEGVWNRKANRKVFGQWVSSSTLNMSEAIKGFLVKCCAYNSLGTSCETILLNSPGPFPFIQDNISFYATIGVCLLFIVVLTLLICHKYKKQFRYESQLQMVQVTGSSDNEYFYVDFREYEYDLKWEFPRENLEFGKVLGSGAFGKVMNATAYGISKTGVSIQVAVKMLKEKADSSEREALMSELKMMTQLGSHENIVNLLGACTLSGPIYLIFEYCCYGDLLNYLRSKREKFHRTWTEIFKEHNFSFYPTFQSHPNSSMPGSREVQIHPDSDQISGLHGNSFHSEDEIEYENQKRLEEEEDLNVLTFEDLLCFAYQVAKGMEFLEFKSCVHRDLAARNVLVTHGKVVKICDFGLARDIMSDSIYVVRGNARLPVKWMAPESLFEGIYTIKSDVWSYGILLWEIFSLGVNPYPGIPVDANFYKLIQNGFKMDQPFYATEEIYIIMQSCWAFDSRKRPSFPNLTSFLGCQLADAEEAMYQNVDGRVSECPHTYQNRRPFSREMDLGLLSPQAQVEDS
Summary of the method: as §1

kinases [4] = target: T4, kinases (Homo sapiens, UniProt P00533, L858R/T790M); details: 1 μM; EGFR(L858R, T790M)
T4 construct: purchased Eurofins/DiscoveRx; host or cells: E. coli BL21-derived host (T7 phage display) for most kinases; HEK-293 for the rest
Summary of the method: as §1

kinases [5] = target: T5, kinases (Homo sapiens, UniProt P00533, DEL746-750); details: 1 μM; EGFR(E746-A750del)
T5 construct: purchased Eurofins/DiscoveRx; host or cells: E. coli BL21-derived host (T7 phage display) for most kinases; HEK-293 for the rest
Summary of the method: as §1

kinases [6] = target: T6, kinases (Homo sapiens, UniProt P00533, L858R); details: 1 μM; EGFR(L858R)
T6 construct: purchased Eurofins/DiscoveRx; host or cells: E. coli BL21-derived host (T7 phage display) for most kinases; HEK-293 for the rest
Summary of the method: as §1

kinases [7] = target: T7, kinases (Homo sapiens, UniProt P00533, DEL752-759); details: 1 μM; EGFR(S752-I759del)
T7 construct: purchased Eurofins/DiscoveRx; host or cells: E. coli BL21-derived host (T7 phage display) for most kinases; HEK-293 for the rest
Summary of the method: as §1

kinases [8] = target: T8, kinases (Homo sapiens, UniProt P00519, Y253F); details: 1 μM; ABL1(Y253F)-phosphorylated
T8 construct: purchased Eurofins/DiscoveRx; host or cells: E. coli BL21-derived host (T7 phage display) for most kinases; HEK-293 for the rest
Summary of the method: as §1

kinases [9] = target: T9, kinases (Homo sapiens, UniProt P35916); details: 1 μM; FLT4
T9 construct: purchased Eurofins/DiscoveRx; host or cells: E. coli BL21-derived host (T7 phage display) for most kinases; HEK-293 for the rest
T9 sequence (P35916 25-1363): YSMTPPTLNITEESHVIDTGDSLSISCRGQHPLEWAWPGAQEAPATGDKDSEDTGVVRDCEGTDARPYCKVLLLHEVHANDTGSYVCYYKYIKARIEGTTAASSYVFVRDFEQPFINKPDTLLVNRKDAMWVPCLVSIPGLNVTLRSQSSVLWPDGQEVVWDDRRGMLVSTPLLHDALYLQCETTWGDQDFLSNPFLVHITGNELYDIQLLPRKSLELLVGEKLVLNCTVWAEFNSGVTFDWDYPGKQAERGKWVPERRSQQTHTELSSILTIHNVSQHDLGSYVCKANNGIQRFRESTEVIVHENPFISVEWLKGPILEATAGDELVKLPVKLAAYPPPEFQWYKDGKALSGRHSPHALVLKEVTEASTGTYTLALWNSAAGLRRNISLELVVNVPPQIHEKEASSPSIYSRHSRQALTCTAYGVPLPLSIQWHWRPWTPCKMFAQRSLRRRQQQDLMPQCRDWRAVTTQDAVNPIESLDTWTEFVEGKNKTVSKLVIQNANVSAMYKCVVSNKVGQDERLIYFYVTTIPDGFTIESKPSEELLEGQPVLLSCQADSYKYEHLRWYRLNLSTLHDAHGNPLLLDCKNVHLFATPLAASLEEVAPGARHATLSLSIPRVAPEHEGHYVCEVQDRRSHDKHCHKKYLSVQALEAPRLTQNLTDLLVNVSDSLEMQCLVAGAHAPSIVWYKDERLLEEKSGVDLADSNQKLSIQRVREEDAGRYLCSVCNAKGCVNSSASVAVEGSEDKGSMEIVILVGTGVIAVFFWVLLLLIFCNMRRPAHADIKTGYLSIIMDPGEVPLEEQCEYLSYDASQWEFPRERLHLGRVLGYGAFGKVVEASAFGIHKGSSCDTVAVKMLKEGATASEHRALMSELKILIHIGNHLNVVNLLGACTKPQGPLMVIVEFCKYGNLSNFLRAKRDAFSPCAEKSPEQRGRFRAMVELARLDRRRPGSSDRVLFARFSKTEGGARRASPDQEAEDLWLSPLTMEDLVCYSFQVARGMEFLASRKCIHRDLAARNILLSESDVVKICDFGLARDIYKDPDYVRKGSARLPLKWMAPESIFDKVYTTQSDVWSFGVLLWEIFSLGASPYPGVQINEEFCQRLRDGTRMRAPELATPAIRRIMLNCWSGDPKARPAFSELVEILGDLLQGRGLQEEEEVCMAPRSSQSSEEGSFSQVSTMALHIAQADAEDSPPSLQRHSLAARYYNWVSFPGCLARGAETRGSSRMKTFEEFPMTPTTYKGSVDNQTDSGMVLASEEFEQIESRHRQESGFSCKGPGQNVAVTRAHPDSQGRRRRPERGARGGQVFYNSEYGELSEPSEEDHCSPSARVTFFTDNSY
Summary of the method: as §1

kinases [10] = target: T10, kinases (Homo sapiens, UniProt P00519, F317L); details: 1 μM
T10 construct: purchased Eurofins/DiscoveRx; host or cells: E. coli BL21-derived host (T7 phage display) for most kinases; HEK-293 for the rest
Summary of the method: as §1

T1 sequence (P10721 26-976 D816H): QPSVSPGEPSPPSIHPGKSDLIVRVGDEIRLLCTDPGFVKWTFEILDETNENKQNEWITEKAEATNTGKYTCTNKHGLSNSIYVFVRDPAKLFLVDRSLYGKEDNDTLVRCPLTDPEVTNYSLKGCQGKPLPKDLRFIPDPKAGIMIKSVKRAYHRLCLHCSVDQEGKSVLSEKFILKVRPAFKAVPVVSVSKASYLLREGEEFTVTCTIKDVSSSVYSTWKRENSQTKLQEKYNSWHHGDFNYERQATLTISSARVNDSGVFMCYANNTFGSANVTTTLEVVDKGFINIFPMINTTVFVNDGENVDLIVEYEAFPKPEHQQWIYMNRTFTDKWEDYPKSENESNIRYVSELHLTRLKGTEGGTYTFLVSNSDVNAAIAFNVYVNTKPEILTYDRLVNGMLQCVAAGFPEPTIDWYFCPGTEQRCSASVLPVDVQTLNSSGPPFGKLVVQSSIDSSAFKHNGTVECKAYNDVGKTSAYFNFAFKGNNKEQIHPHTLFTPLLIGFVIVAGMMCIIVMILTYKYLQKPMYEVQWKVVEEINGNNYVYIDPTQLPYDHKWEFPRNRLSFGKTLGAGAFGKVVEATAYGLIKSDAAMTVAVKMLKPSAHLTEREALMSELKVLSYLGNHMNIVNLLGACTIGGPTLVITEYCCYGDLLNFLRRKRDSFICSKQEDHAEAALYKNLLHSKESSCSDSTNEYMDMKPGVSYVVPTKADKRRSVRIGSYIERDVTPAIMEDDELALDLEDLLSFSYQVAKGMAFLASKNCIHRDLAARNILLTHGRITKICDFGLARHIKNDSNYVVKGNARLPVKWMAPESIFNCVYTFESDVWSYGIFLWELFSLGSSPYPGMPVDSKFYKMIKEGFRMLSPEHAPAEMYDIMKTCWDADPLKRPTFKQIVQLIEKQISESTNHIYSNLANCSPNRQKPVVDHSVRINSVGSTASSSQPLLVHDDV

Structure (SMILES) | % Ctrl, KIT(D816H) (kinases [1]) [% Ctrl] | % Ctrl, ABL1-nonphosphorylated (kinases [2]) [% Ctrl] | % Ctrl, ABL1-phosphorylated (kinases [2]) [% Ctrl] | % Ctrl, FLT3(N841I) (kinases [3]) [% Ctrl] | % Ctrl, EGFR(L858R, T790M) (kinases [4]) [% Ctrl] | % Ctrl, EGFR(E746-A750del) (kinases [5]) [% Ctrl] | % Ctrl, EGFR(L858R) (kinases [6]) [% Ctrl] | % Ctrl, EGFR(S752-I759del) (kinases [7]) [% Ctrl] | % Ctrl, ABL1(Y253F)-phosphorylated (kinases [8]) [% Ctrl] | % Ctrl, FLT4 (kinases [9]) [% Ctrl] | % Ctrl, ABL1(F317L)-nonphosphorylated (kinases [10]) [% Ctrl] | % Ctrl, ABL1(F317L)-phosphorylated (kinases [10]) [% Ctrl]
Cc1cc2c([nH]1)/C=C1\C(=O)Nc3ccc(nc31)-c1ccccc1OCCCNC2=O [Ex.22, [3a(4)Z]-6-methyl-9,10,11,12-tetrahydro-1,18-(ethanediylidene)dipyrrolo[3,2-g:3′,4′-j][1,5,12]benzoxadiazacyclopentadecine-3,8(2H,5H)-dione] | 100 | 71 | 69 | 65 | 97 | 97 | 67 | 72 | 68 | 92 | 82 | 100
Cc1cc2c([nH]1)/C=C1\C(=O)Nc3ccc(cc31)-c1ccnn1CCOCCNC2=O [Ex.39, [19a(20)Z]-2-methyl-6,7,9,10-tetrahydro-1H-15,17-(ethanediylidene)pyrazolo[1,5-d]dipyrrolo[3,4-h:2′,3′-k][1,4,14]oxadiazacyclohexadecine-4,19(5H,18H)-dione] | 83 | 73 | 78 | 83 | 90 | 69 | 64 | 80 | 98 | 98 | 98 | 60
Cc1cc2c([nH]1)/C=C1\C(=O)Nc3cnc(nc31)N(C)CCCOCCN(C)C2=O [Ex.71, [17a(18)Z]-2,5,12-trimethyl-6,7,9,10,11,12-hexahydro-1H-13,15-(azenometheno)dipyrrolo[3,2-f:3′,4′-i][1,4,11,13]oxatriazacyclohexadecine-4,17(5H,16H)-dione] | 100 | 90 | 93 | 75 | 100 | 100 | 9 | 74 | 91 | 95 | 100 | 100
Cc1cc2c([nH]1)/C=C1\C(=O)Nc3ccc(cc31)OCCOCCN(C)C2=O [Ex.91, [16a(17)Z]-2,5-dimethyl-6,7,9,10-tetrahydro-1H-12,14-(ethanediylidene)dipyrrolo[3,2-i:3′,4′-l][1,4,7]dioxazacyclopentadecine-4,16(5H,15H)-dione] | 41 | 0.75 | 15 | 0 | 58 | 93 | 100 | 63 | 7.8 | 9.9 | 12 | 20
Cc1cc2c([nH]1)/C=C1\C(=O)Nc3ccc(cc31)CN(C)C(=O)COCCNC2=O [Ex.111, [17a(18)Z]-2,11-dimethyl-6,7,11,12-tetrahydro-1H-13,15-(ethanediylidene)dipyrrolo[3,2-f:3′,4′-i][1,4,14]oxadiazacyclohexadecine-4,10,17(5H,9H,16H)-trione] | 7 | 71 | 59 | 14 | 97 | 92 | 78 | 54 | 58 | 74 | 87 | 100
Cc1cc2c([nH]1)/C=C1\C(=O)Nc3cnc(cc31)-c1cnn(C)c1COCCNC2=O [Ex.123, [3a(4)Z]-6,14-dimethyl-10,11,13,14-tetrahydro-2H-17,1-(azenometheno)pyrazolo[4,3-m]dipyrrolo[3,2-f:3′,4′-i][1,4]oxazacyclopentadecine-3,8(5H,9H)-dione] | 100 | 83 | 100 | 95 | 92 | 100 | 94 | 93 | 100 | 94 | 100 | 100
Cc1cc2c([nH]1)/C=C1\C(=O)Nc3ccc(cc31)-c1ccnn1CCOCCN(C)C2=O [Ex. 41, [19a(20)Z]-2,5-dimethyl-6,7,9,10-tetrahydro-1H-15,17-(ethanediylidene)pyrazolo[1,5-d]dipyrrolo[3,4-h:2′,3′-k][1,4,14]oxadiazacyclohexadecine-4,19(5H,18H)-dione] | 38 | 7.1 | 56 | 0 | 17 | 36 | 93 | 89 | 49 | 62 | 26 | 53
Cc1cc2c([nH]1)/C=C1\C(=O)Nc3ccc(cc31)-c1ccnn1CCNCCNC2=O [Ex. 43, [19a(20)Z]-2-methyl-5,6,7,8,9,10-hexahydro-15,17-(ethanediylidene)pyrazolo[1,5-g]dipyrrolo[3,4-k:2′,3′-n][1,4,7]triazacyclohexadecine-4,19(1H,18H)-dione] | 65 | 53 | 90 | 98 | 98 | 69 | 97 | 91 | 80 | 91 | 63 | 90
